This is an account of results in patent publication US11603364B2, “Acyl hydrazone derivative compounds for treating disease” (Alterity Therapeutics Limited, priority 2020, dated 2023).

SMILES strings stand for the structures.

In assay [1] the test system is phospho-GSK-3β. As to the kind of experiment: GSK 3b assay: Zn ionophore-enhanced phosphorylation of GSK-3β (AlphaScreen SureFire Phospho-GSK 3β (Ser9) kit) in SH-SY5Y cells. Type of assay: cell-based, human. To be noted: test compound 2 μM + ZnCl2 5 μM, 2 h at 37° C. The procedure: The phosphorylation of GSK-3β is enhanced when Zn is imported into a cell by a Zn ionophore. This property was measured for the compounds of the current invention and the data presented relative to the know Zn ionophore PBT2 using the following protocol.
The human neuroblastoma SH-SY5Y cells were obtained from Cell bank Australia (Catalogue number: 94030304). SH-SY5Y cell culture was maintained in DMEM/F12+15% FBS inside an incubator at 37° C. in the presence of 5% CO2. The cells were sub-cultured once a week and the media exchanged once during the week. Cells for the assay were plated at a density of 60,000 cells/well.
Stock solutions of the samples were prepared as a 5 mM stock in DMSO and a stock solution of 1 mM ZnCl2/3 mM Glutamic acid was prepared in water. Immediately before use the compounds were diluted 1:10 with water before being added to Locke's buffer in a treatment tube. Samples were subsequently treated with either distilled water or the ZnCl2/Glutamic acid solution to yield a treatment solution which has a final concentration of the test compound at 2 μM+/−ZnCl2 at 5 μM.
The culture media was aspirated from the wells and the media replaced with the treatment solution prepared above. In addition to the relative standard (PBT2+/−ZnCl2), control wells were also included consisting of +/−ZnCl2 at 5 μM with all treatments done in triplicate. The plate was incubated at 37° C. with the treatment solution for 2 h after which time the wells were aspirated and washed with sterile PBS.
Measurement of the change of phospho-GSK-3β was determined using an AlphaScreen® SureFire® Phospho-GSK […] (Ser9) Kit with the cells being processed as per the manufacturer's instructions using an initial incubation of 2 h/24° C. and a final incubation of 16 h/24° C.
The fluorescence was measured on an Enspire plate reader. […] Representative data is presented in Table 12 using the following ranges: A<50%, B 50-<100%, C 100-<150%, D>150%.
For orientation: Bead proximity is the source of the signal in Alpha formats.

Assay [2] concerns BE(2)-M17 (M17) cells. Put plainly: Method I: Measurement of Fe efflux from cells (57Fe-loaded, ICP-MS of media). Type of assay: cell-based, human. The conditions noted are these: Homo sapiens; M17 cells loaded with 20 μM 57Fe, compound 20 μM, 2 h; read-out: Fe-Efflux (% increase of Fe in media relative to cell media in the absence of the compound). The procedure:
Method I: Measurement of Fe Efflux from Cells
Compounds of the current invention were assessed for their ability to efflux iron (Fe) from a cell using the following protocol.
The human neuroblastoma line BE(2)-M17 (M17) cell cultures were acquired from Sigma Aldrich (Catalogue #: 95011816). M17 Cells were maintained in Opti-MEM reduced serum media supplemented with 10% fetal bovine serum (Bovogen, SFBSF) and passaged twice weekly. Cells were cultured at 37° C. in the presence of 5% CO2. Culture supplies were sourced from Thermo Fisher unless otherwise stated.
A solution of ^57Fe cold isotope was prepared by dissolving ^57Fe metal (>95% enrichment, Trace Sciences International) in concentrated HCl to give a final concentration of 573 mM. From this master solution, a 10 mM working solution was prepared in sterile water. The working solution was used within two months of preparation.
M17 cells were loaded with iron initially by seeding into 48-well plates at a density of 0.15×10^6 cells per well in 0.5 mL media. After 48 h, old media was discarded. Fresh media was supplemented with 20 μM ^57Fe isotope, from the 10 mM ^57Fe working solution. Cells received 0.2 mL of this ^57Fe enriched media and were returned to the incubator for 20 h. The ability of experimental compounds to efflux iron was determined by the dissolution of compounds in DMSO and diluted in Hanks' Balanced Salt Solution (HBSS) for treatment of M17 cells. After ^57Fe incubation, cells were rinsed twice with HBSS and treated with 0.15 mL trial compound for 2 h at a concentration of 20 μM. All assays included a relevant vehicle (0.4%-0.8% DMSO) as well as a positive control (20 μM). Following the treatment period, 0.1 mL of media was collected from cells and the extracellular ^57Fe content was analysed via inductively coupled mass spectrometry (ICP-MS, Agilent 7700x series instrument).
To perform this protocol the following supplies were purchased from Sigma Aldrich: anhydrous dimethyl sulfoxide (DMSO, Catalogue #: 276855), Hanks' Balanced Salt Solution supplemented with 20 mM HEPES and 4.2 mM Sodium Bicarbonate (HBSS, pH: 7.4, Catalogue #: H1387).
After 2 h the Fe levels in the media were measured and the increase determined as a percentage increase relative to the cell media in the absence of the compound.
Representative data is provided in Table 13 where the % Fe efflux for the specified compounds of the invention lie in the following ranges: A<30%, B 30-100%, C 100-150%; D>150%.

Take `O=C(N/N=C1\CCCc2cccnc21)c1ccccc1Cl` [Compound 15]: the “GSK-Zn (signal as % of the positive standard PBT2+ZnCl2)” value in assay [1] was “D (D>150%)”. The activation at 20 µM in assay [2] was above 150%.

For the compound `Cc1cccc(C(=NNC(=O)c2ccccc2C)c2cccc(C)n2)n1` [Compound 122], the “GSK-Zn (signal as % of the positive standard PBT2+ZnCl2)” value in assay [1] is on record as “A (A<50%)”. For the same compound, the activation at 20 µM in assay [2] was below 30%.

Regarding `COc1ccc(C(=O)N/N=C2\CCCc3cccnc32)cc1OC` [Compound 7], the “GSK-Zn (signal as % of the positive standard PBT2+ZnCl2)” value in assay [1] was “A (A<50%)”. The activation at 20 µM in assay [2] was in the range of 30 to 100%.

For `O=C(N/N=C1\CCCc2cccnc21)c1ccccn1` [Compound 2], the “GSK-Zn (signal as % of the positive standard PBT2+ZnCl2)” value in assay [1] is recorded as “A (A<50%)”. The activation at 20 µM in assay [2] lay within 100 to 150%.

As for `CN(C)CCOc1ccccc1C(=O)N/N=C1\CCCc2cccnc21.Cl` [Compound 39], the “GSK-Zn (signal as % of the positive standard PBT2+ZnCl2)” value in assay [1] is “A (A<50%)”. The activation at 20 µM in assay [2] is above 150%.

Turning to `O=C(N/N=C1\CCCc2cccnc21)c1ccncc1` [Compound 3], in assay [1], the “GSK-Zn (signal as % of the positive standard PBT2+ZnCl2)” value is listed as “A (A<50%)”. The activation at 20 µM in assay [2] was above 150%.

For the compound `COc1ccc(C(=O)N/N=C2\CCCc3cccnc32)cc1` [Compound 9], in assay [1], the “GSK-Zn (signal as % of the positive standard PBT2+ZnCl2)” value was “A (A<50%)”. In addition, the activation at 20 µM in assay [2] was 30 to 100%.

In the case of `C/C(=N\NC(=O)c1snnc1C)c1ccc2ccccc2n1` [Compound 91], in assay [1], the “GSK-Zn (signal as % of the positive standard PBT2+ZnCl2)” value is listed as “C (C 100-<150%)”. For the same compound, in assay [2], the activation at 20 µM lay in the range of 30 to 100%.

Regarding `C/C(=N\NC(=O)c1snnc1C)c1ncccn1` [Compound 48], the “GSK-Zn (signal as % of the positive standard PBT2+ZnCl2)” value in assay [1] is given as “C (C 100-<150%)”. For the same compound, the activation at 20 µM in assay [2] was above 150%.
